Data set [1] has as its system human cell co-culture system. Briefly: In vitro angiogenesis co-culture system (tubule formation, PECAM-1 staining). The data set is classed as cell-based. Conditions: 20 μM, negative control; 11 days co-culture. The method, then:
Egr-1 under the control of the hCMV promoter (Houston et al, Arterioscler. Thromb. Vasc. Biol., 19; 281-289, 1999) was transfected into a human cell co-culture system designed to measure angiogenesis in vitro. The angiogenesis kit (TCS Biologicals) was used as described according to the manufacturer's instructions using VEGF protein (2 ng/ml) and suramin (20 μM) as positive and negative controls respectively for angiogenesis.
Optimisation of transfection in the co-culture system was performed using pGL3 control luciferase (Promega) with 1.0 μg and 0.5 μg CMV-β, gal as a normalising plasmid for transfection control. Two ratios of lipid: DNA (v/w) were used; 2:1 and 4:1 (FIG. 3a.). CMV Egr-1 DNA was transfected at 0.5, 1.0, 1.5 and 2.5 μg per well in triplicate in a 24 well microtitre plate using Mirus Transit reagent (Cambridge Biosciences) at a ratio of 2:1 v/w DNA. VEGF protein positive control and suramin negative control was added to triplicate wells. After 11 days co-culture angiogenesis was determined by staining of cells for the endothelial cell marker PECAM-1 and visualisation using BCIP/NBT substrate.
Representative images of tubule formation using all four doses of Egr-1 expression plasmid together with VEGF (positive control) and suramin (negative control) were captured and processed by image analysis using Quantimet 600 image analyser and associated software. […]

The subject of another data set is rat excisional wounds. Nature of the data set: Rat excisional wound healing model after particle mediated gene transfer. The data set is classed as in vivo, Sprague Dawley rats. The procedure:
Eighteen male Sprague Dawley rats weighing 250g were anaesthetised under isoflorane in a 2:1 mixture of oxygen/nitrous oxide. Two sites of transfection (8 cm from the skull, 1.5 cm either side of the spine) on the rat dorsum were prepared by firstly clipping the pelt then shaving with a razor. Two transfections were carried out per wound site, 8 mm apart, by accelerating plasmid/gold complexes of either Egr-1 or β-galactosidase into the skin at 350 psi. Total amount of DNA was not less than 1.7 μg per transfection (equalling 3.4 μg per wound). […]
Wound area was determined using image analysis and the healing expressed as a increase in percent of original wound area. Statistical significances of differences between treated and control groups were evaluated using a […] Mann-Whitney test.
Each wound per time point after dissection was bisected horizontally. […] Using this histological stain, key markers of wound healing was assessed including re-epithelialisation and collagen content and comparisons made between treated and control sections.
Immunocytochemistry and image analysis was performed in order to quantify the differences seen using routine histology. […] Area and intensity of staining was measured using image analysis and plotted as a graph. Statistical significant differences between treated and control groups were evaluated using a Man-Whitney nonparametric test.

The test system of the next data set is HeLa cells. Briefly: Transient transfection of reporter plasmid pSVSRE5 with pFA-MEK1 into HeLa cells. Particulars: co-transfected pFA-MEK1 vs pFA-dbd. Format: cell-based. The text has this: We have concentrated on SRE5. The novel SRE 5 with its associated Ets transcription factor binding sites was synthesised as a double stranded oligonucleotide and inserted into the Nhe I site upstream of a SV40 minimal promoter vector (pSV40). SRE5 (SEQ ID NOS:7-8) has the sequence: […]
The resulting reporter plasmid pSVSRE5 was transiently transfected into HeLa cells together with plasmids pFA-dbd (construct encoding the Gal4 DNA binding domain (dbd) ) or pFA-MEK1 (construct encoding a fusion protein of the Gal4 DNA binding domain (dbd) and the kinase domain of the MAP kinase kinase MEK1). The Gal4-MEK1 fusion protein is constitutively active and phosphorylates Elk1 and SRF, bound to SRE5.

The values below come from patent US6689758B1, “Gene therapy method” (SmithKline Beecham Corporation, priority 1998, dated 2004).

`Cc1ccc(C(=O)Nc2ccc(S(=O)(=O)O)c3cc(S(=O)(=O)O)cc(S(=O)(=O)O)c23)cc1NC(=O)c1cccc(NC(=O)Nc2cccc(C(=O)Nc3cc(C(=O)Nc4ccc(S(=O)(=O)O)c5cc(S(=O)(=O)O)cc(S(=O)(=O)O)c45)ccc3C)c2)c1` [suramin]: the tubule formation entry in data set [1] is listed as “Decreased tubule formation”. In the case of β-galactosidase, the “collagen I immunostaining (image analysis)” value in the data set on rat excisional wounds (2 days post wounding, β-galactosidase compared to Egr-1) is reported as “significantly more collagen”. For the same molecule, in the data set on rat excisional wounds (6 days post wounding), the “wounds with complete re-epithelialisation” value is on record as 0%.

B1: SRE5: novel SRE 5 with associated Ets sites, double stranded oligonucleotide inserted upstream of SV40 minimal promoter (reporter plasmid pSVSRE5) (nucleic acid)
chain 1: AGGCTGCGACCCGGAAATGCCATATAAGAAGCAGGAAGGATCCCCCCGCCGG
chain 2: AGCCGGCGGGGGGATCCTTCCTGCTTCTTATATGGCATTTCCGGGTCGCAGC
modifications: double-stranded insert cloned upstream of SV40 minimal promoter in reporter plasmid, further chemistry not given here
As for B1, in the data set with HeLa cells, the “activation by the presence of MEK1 (reporter)” value was determined as 3 fold.
